For 60 molecules, IC50 results are on record in US20120207763A1, “PYRROLOPYRIMIDINE COMPOUNDS AND THEIR USES” (ASTEX THERAPEUTICS LIMITED, priority 2006, published 2012).

The target in assay [1] is CDK2/Cyclin-A kinase complex (Homo sapiens, UniProt P24941). Kind of assay: CDK2 IMAP fluorescence polarization assay. It is filed as biochemical. An excerpt:
In order to test the CDK2 activity of the compounds of the invention, the CDK2 assay is a flourescence polarization assay, where the enzyme is a purified active CDK2/Cyclin-A kinase complex and the substrate is a synthesized peptide derived from Histone H1. This assay utilizes the IMAP technology from Molecular Devices. The active CDK2/Cyclin-A complex phosphorylates the peptide substrate, which is conjugated with the TAMRA tag. The phosphorylated site is then recognized by a metal containing molecule that interacts with the TAMRA tag to induce a high flourescence polarization. The compounds that inhibit the CDK2 kinase activity would inhibit the flourescence output of the assay.

For a further assay, the target named is CDK4 (Homo sapiens, UniProt P11802). As to the kind of experiment: CDK4 HTRF assay. It is filed as biochemical. The conditions noted are these: Table E.
Chain of CDK4 (P11802 whole entry): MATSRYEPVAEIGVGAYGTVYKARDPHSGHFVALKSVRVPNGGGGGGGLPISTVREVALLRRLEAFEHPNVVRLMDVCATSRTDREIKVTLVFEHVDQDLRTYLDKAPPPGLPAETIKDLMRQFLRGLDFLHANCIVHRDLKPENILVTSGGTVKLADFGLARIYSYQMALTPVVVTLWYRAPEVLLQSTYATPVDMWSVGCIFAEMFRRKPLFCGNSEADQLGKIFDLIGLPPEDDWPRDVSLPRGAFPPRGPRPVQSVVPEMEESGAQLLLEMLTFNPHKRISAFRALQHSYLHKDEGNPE
Chain of CDK4 (P24385 whole entry partner): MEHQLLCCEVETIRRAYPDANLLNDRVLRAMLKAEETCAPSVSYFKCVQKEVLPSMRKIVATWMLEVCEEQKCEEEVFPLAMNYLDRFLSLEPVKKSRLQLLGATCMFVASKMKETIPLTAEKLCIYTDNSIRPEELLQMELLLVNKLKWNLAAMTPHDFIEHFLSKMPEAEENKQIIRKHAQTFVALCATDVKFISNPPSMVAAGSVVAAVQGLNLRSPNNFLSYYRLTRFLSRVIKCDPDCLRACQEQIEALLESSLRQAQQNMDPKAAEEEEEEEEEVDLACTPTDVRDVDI
Where [2] appears, read: Table E, read-out: CDK2cyA IMAP/IC50 [umol l − 1].
The mark [3] stands for this setting: read-out: CDK4 HTRF/IC50 [umol l − 1].

Each structure is given as a SMILES string. Like-named read-outs stand apart in the source and are kept apart here.

With `CCCCNC(=O)c1cc2cnc(Nc3ccc(N4CCNCC4)cc3)nc2n1C(CC)CC` [Example 336], the IC50 in assay [1] (setting [2]) is greater than 10 µM.

In the case of `CC(=O)N1CCN(c2ccc(Nc3ncc4ccn(C5CCC(C)CC5)c4n3)cc2)CC1` (stereo not drawn) [Example 236], the IC50 in assay [1] (setting [2]) is less than 1 µM.

On to `CCC(CC)n1c(C(=O)OC)cc2cnc(Nc3ccc(N4CCN(C(C)=O)CC4)cc3)nc21` [Example 373, 2-[4-(4-Acetyl-piperazin-1-yl)-phenylamino]-7-(1-ethyl-propyl)-7H-pyrrolo[2,3-d]pyrimidine-6-carboxylic acid methyl ester], for which the IC50 in assay [1] (setting [2]) was less than 10 µM.

`NC1CCC(n2ccc3cnc(Nc4ccc(N5CCNCC5)cc4)nc32)CC1` (stereo not drawn) [Example 243]: the IC50 (in assay [1] (setting [2]); at CDK4 (setting [3])) was less than 1 µM each time.

For `Cc1cn(-c2nccs2)c2nc(Nc3ccc(N4CCN(S(C)(=O)=O)CC4)cn3)ncc12` [Example 446], the IC50 in assay [1] (setting [2]) is less than 10 µM; on CDK4 (setting [3]), 10 µM.

Turning to `CCC(CC)n1c(C(=O)N2CCCC2)cc2cnc(Nc3ccc(N4CCNCC4)cc3)nc21` [Example 337], the IC50 in assay [1] (setting [2]) was greater than 10 µM.

With `CC(C)c1cn(C2CCCC2)c2nc(Nc3ccc(N4CCNCC4)cn3)ncc12` [Example 440], in assay [1] (setting [2]), the IC50 is greater than 10 µM.

As to `CCC(C)n1ccc2cnc(Nc3ccc(N4CCNCC4)cc3)nc21` (stereo not drawn) [Example 230], the values for the IC50 (in assay [1] (setting [2]); at CDK4 (setting [3])) were less than 10 µM and less than 1 µM, respectively.

On to `COc1ccccc1Nc1ncc2c(C)cn(C3CCCC3)c2n1` [Example 293], for which the IC50 in assay [1] (setting [2]) is greater than 10 µM; at CDK4 (setting [3]), 10 µM.

Take `Cc1cn(C2CCCC2)c2nc(Nc3ccccc3F)ncc12` [Example 441]: the IC50 in assay [1] (setting [2]) is greater than 10 µM; at CDK4 (setting [3]), 10 µM.

Regarding `Cc1cn(-c2nccs2)c2nc(Nc3ccc(N4CCNCC4)cn3)ncc12` [Example 321], the IC50 in assay [1] (setting [2]) is greater than 10 µM.

With `COC(=O)c1c(C)n(C2CCCC2)c2nc(Nc3ccc(N4CCNCC4)cc3)ncc12` [Example 408], the IC50 (in assay [1] (setting [2]); on CDK4 (setting [3])) was greater than 10 µM each time.

On to `CCC(C(=O)OC)n1ccc2cnc(Nc3ccc(N4CCNCC4)cc3)nc21` (stereo not drawn) [Example 221], for which the IC50 in assay [1] (setting [2]) is less than 10 µM.

As to `CC(=O)N1CCN(c2ccc(Nc3ncc4c(C)cn(C5CCCCC5)c4n3)cc2)CC1` [Example 274], the IC50 in assay [1] (setting [2]) is greater than 10 µM.

For the molecule `Cc1cn(C2CC2)c2nc(Nc3ccc(N4CCN(C)CC4)cc3)ncc12` [Example 270], in assay [1] (setting [2]), the IC50 is greater than 10 µM.

In the case of `Cc1cc(-c2c(C)c3cnc(Nc4ccc(N5CCNCC5)cn4)nc3n2C2CCCC2)on1` [Example 405], in assay [1] (setting [2]), the IC50 was greater than 10 µM.

Take `CC(=O)N1CCN(c2ccc(Nc3ncc4ccn(C5CCCC5)c4n3)nc2)CC1` [Example 252]: the IC50 in assay [1] (setting [2]) was greater than 10 µM.

For the molecule `Cc1cn(C2CCCC2)c2nc(Nc3ccncc3)ncc12` [Example 298], in assay [1] (setting [2]), the IC50 is less than 1 µM.

Consider `Cc1cn(-c2ccccc2)c2nc(Nc3ccc(N4CCNCC4)cc3)ncc12` [Example 437], for which, in assay [1] (setting [2]), the IC50 was greater than 10 µM.

With `CCC(C(N)=O)n1ccc2cnc(Nc3ccc(N4CCNCC4)cc3)nc21` (stereo not drawn) [Example 234], the IC50 in assay [1] (setting [2]) is greater than 10 µM.

With `O=C(O)[C@@H]1CCC(n2ccc3cnc(Nc4ccc(N5CCNCC5)cc4)nc32)C1` (stereo partly drawn) [Example 248], the IC50 in assay [1] (setting [2]) is less than 10 µM; on CDK4 (setting [3]), less than 1 µM.

Turning to `Clc1cn(C2CCCC2)c2nc(Nc3ccc(N4CCNCC4)cn3)ncc12` [Example 433], the IC50 in assay [1] (setting [2]) is greater than 10 µM; on CDK4 (setting [3]) it was less than 1 µM.

In the case of `c1cc(Nc2ncc3ccn(C4CCCC4)c3n2)ncc1N1CCNCC1` [Example 424], the figures for the IC50 (in assay [1] (setting [2]); on CDK4 (CDK4 HTRF/IC50 [umol l − 1])) were greater than 10 µM and less than 1 µM, respectively.

With `CCOC(=O)C(C(C)C)n1ccc2cnc(Nc3ccc(N4CCNCC4)cc3)nc21` (stereo not drawn) [Example 231], the IC50 in assay [1] (setting [2]) is greater than 10 µM; at CDK4 (setting [3]), less than 1 µM.

For the molecule `CC(=O)N1CCN(c2ccc(Nc3ncc4ccn(C5CCOCC5)c4n3)cc2)CC1` [Example 228], the IC50 in assay [1] (setting [2]) is less than 10 µM.

Consider `CCC(CC)n1c(C(=O)N(C)C)cc2cnc(Nc3ccc(N4CCNCC4)cc3)nc21` [Example 335, 7-(1-ethyl-propyl)-2-(4-piperazin-1-yl-phenylamino)-7H-pyrrolo[2,3-d]pyrimidine-6-carboxylic acid dimethyl amide], for which the IC50 in assay [1] (setting [2]) was less than 10 µM; on CDK4 (setting [3]), less than 1 µM.

For the molecule `Cc1cn(C2CCCC2)c2nc(Nc3ccc(N4CCN(S(C)(=O)=O)CC4)cc3)ncc12` [Example 286], in assay [1] (setting [2]), the IC50 was less than 10 µM.

`Cc1c(Cl)c2cnc(Nc3ccc(N4CCNCC4)cn3)nc2n1C1CCCC1` [Example 334]: the figures for the IC50 (in assay [1] (setting [2]); at CDK4 (setting [3])) were greater than 10 µM and less than 1 µM, respectively.

With `Cc1cn(C2CCCC2)c2nc(Nc3ncccn3)ncc12` [Example 296], the IC50 in assay [1] (setting [2]) was greater than 10 µM; on CDK4 (setting [3]), 10 µM.

As for `Cc1c(-c2cnco2)n(C2CCCC2)c2nc(Nc3ccc(N4CCNCC4)cn3)ncc12` [Example 399], the IC50 in assay [1] (setting [2]) is less than 10 µM; at CDK4 (setting [3]), less than 1 µM.

On to `CCC(CC)n1c(C(C)=O)cc2cnc(Nc3ccc(N4CCN(C(C)=O)CC4)cc3)nc21` [Example 377, 1-[2-[4-(4-Acetyl-piperazin-1-yl)-phenylamino]-7-(1-ethyl-propyl)-7H-pyrrolo[2,3-d]pyrimidin-6-yl]-ethanone], for which the IC50 (in assay [1] (setting [2]); at CDK4 (setting [3])) was less than 1 µM in each case.

Consider `CC(=O)N1CCN(c2ccc(Nc3ncc4ccn(C5CCCC(C)C5)c4n3)cc2)CC1` (stereo not drawn) [Example 241], for which the IC50 in assay [1] (setting [2]) is less than 10 µM.

For the molecule `Cc1cn(C2CCCC2)c2nc(Nc3ccc(N4CCNCC4)nc3)ncc12` [Example 283], the IC50 in assay [1] (setting [2]) was greater than 10 µM.

With `CCc1cn(C2CCCC2)c2nc(Nc3ccc(N4CCNCC4)cc3)ncc12` [Example 438], the IC50 in assay [1] (setting [2]) was less than 10 µM.

Take `CCC(C(N)=O)n1ccc2cnc(Nc3ccc(N4CCN(C(C)=O)CC4)cc3)nc21` (stereo not drawn) [Example 227]: the IC50 in assay [1] (setting [2]) was less than 10 µM.

For the molecule `CN(C)CC1CCC(n2ccc3cnc(Nc4ccc(N5CCNCC5)cc4)nc32)C1` (stereo not drawn) [Example 249], the IC50 in assay [1] (setting [2]) is less than 10 µM.

Consider `Cc1cn(C2CC2)c2nc(Nc3ccc(N4CCNCC4)cn3)ncc12` [Example 271], for which the IC50 in assay [1] (setting [2]) was greater than 10 µM.

With `CN1CCN(c2ccc(Nc3ncc4ccn(C5CCCC5)c4n3)cc2)CC1` [Example 253], the IC50 in assay [1] (setting [2]) was less than 10 µM.

On to `CCC(CC)n1c(C(C)O)cc2cnc(Nc3ccc(N4CCN(C(C)=O)CC4)cc3)nc21` (stereo not drawn) [Example 376, 1-(4-{4-[7-(1-Ethyl-propyl)-6-(1-hydroxy-ethyl)-7H-pyrrolo[2,3-d]pyrimidin-2-ylamino]-phenyl}-piperazin-1-yl)-ethanone], for which the IC50 is less than 10 µM in assay [1] (setting [2]) and less than 1 µM at CDK4 (setting [3]).

As for `CCC(CC)n1c(C(C)OC)cc2cnc(Nc3ccc(N4CCNCC4)cc3)nc21` (stereo not drawn) [Example 378, [7-(1-Ethyl-propyl)-6-(1-methoxy-ethyl)-7H-pyrrolo[2,3-d]pyrimidin-2-yl]-(4-piperazin-1-yl-phenyl)-amine], the IC50 was less than 10 µM in assay [1] (setting [2]) and less than 1 µM on CDK4 (setting [3]).

Consider `CN(C)c1ccc(Nc2ncc3ccn(C4CCCC4)c3n2)cc1` [Example 262], for which the IC50 in assay [1] (setting [2]) was less than 10 µM; on CDK4 (setting [3]) it was greater than 10 µM.

In the case of `CCC(=O)N1CCN(c2ccc(Nc3ncc4ccn(C(CC)CC)c4n3)cc2)CC1` [Example 237], in assay [1] (setting [2]), the IC50 is less than 10 µM.

`CCOC(=O)C(C(C)C)n1ccc2cnc(Nc3ccc(N4CCN(C(C)=O)CC4)cc3)nc21` (stereo not drawn) [Example 223]: the IC50 in assay [1] (setting [2]) is greater than 10 µM.

`CCC(CC)n1c(CNC(C)C)cc2cnc(Nc3ccc(N4CCNCC4)cc3)nc21` [Example 367]: in assay [1] (setting [2]), the IC50 was less than 10 µM.

For `c1cc(N2CCNCC2)ccc1Nc1ncc2ccn(C3CCOCC3)c2n1` [Example 235], in assay [1] (setting [2]), the IC50 is greater than 10 µM.

As to `CC(=O)N1CCN(c2ccc(Nc3ncc4ccn(C5CCCC5)c4n3)cc2)CC1` [Example 254], the IC50 in assay [1] (setting [2]) was less than 1 µM.

For the molecule `CC1CN(C2CCCC2)c2nc(Nc3ccc(N4CCN(C)CC4)cc3)ncc21` (stereo not drawn), in assay [1] (Table C, read-out: CDK2 IC50), the IC50 is greater than 10 µM.

`CCC(CC)n1c(CNC(C)C)cc2cnc(Nc3ccc(N4CCN(C(C)=O)CC4)cc3)nc21` [Example 366]: the IC50 in assay [1] (setting [2]) is less than 10 µM.

Turning to `Cc1cn(-c2ccccn2)c2nc(Nc3ccc(N4CCNCC4)cn3)ncc12` [Example 320, (5-Methyl-7-pyridin-2-yl-7H-pyrrolo[2,3-d]pyrimidin-2-yl)-(5-piperazin-1-yl-pyridin-2-yl)-amine], the IC50 in assay [1] (setting [2]) was greater than 10 µM.

In the case of `CCC(CC)n1c(C(=O)NC2CCCC2)cc2cnc(Nc3ccc(N4CCNCC4)cc3)nc21` [Example 344], the IC50 in assay [1] (setting [2]) was greater than 10 µM.

As to `CCC(C(=O)OC)n1ccc2cnc(Nc3ccc(N4CCN(C(C)=O)CC4)cc3)nc21` (stereo not drawn) [Example 219], the IC50 in assay [1] (setting [2]) was less than 10 µM.

Take `Cc1cn(C2CCCC2)c2nc(Nc3cccnc3)ncc12` [Example 300]: the IC50 in assay [1] (setting [2]) is less than 1 µM.

Regarding `Cc1cn(C2CCCC2)c2nc(Nc3ccc(N4CCNCC4)c(F)c3)ncc12` [Example 285], the IC50 in assay [1] (setting [2]) was less than 10 µM.

`CC(=O)N1CCN(c2ccc(Nc3ncc4ccn(C5CCCCC5=O)c4n3)cc2)CC1` (stereo not drawn) [Example 226]: the IC50 in assay [1] (setting [2]) was greater than 10 µM.

Regarding `CCC(C)n1ccc2cnc(Nc3ccc(N4CCN(C(C)=O)CC4)cc3)nc21` (stereo not drawn) [Example 222], the IC50 in assay [1] (setting [2]) was less than 10 µM.

For the molecule `Cc1cn(C2CCCC2)c2nc(Nc3ccc(S(N)(=O)=O)cc3)ncc12` [Example 288], in assay [1] (setting [2]), the IC50 is less than 1 µM.

In the case of `Cc1cn(-c2cccnc2)c2nc(Nc3ccc(N4CCNCC4)cc3)ncc12` [Example 322], in assay [1] (setting [2]), the IC50 is greater than 10 µM.

In the case of `CCC(CC)n1ccc2cnc(Nc3ccc(N4CCN(C(C)=O)CC4)cc3)nc21` [Example 201], the IC50 in assay [1] (setting [2]) is less than 10 µM.

For `CC(=O)c1c(C)c2cnc(Nc3ccc(N4CCNCC4)cn3)nc2n1C1CCOCC1` [Example 388], in assay [1] (setting [2]), the IC50 was greater than 10 µM.

On to `CCC(CC)n1c(C(=O)N2CCOCC2)cc2cnc(Nc3ccc(N4CCNCC4)cc3)nc21` [Example 343], for which, in assay [1] (setting [2]), the IC50 was greater than 10 µM.
